Results: ChEMBL document CHEMBL5614402, “Discovery of novel pyrazolo[1,5-a]pyrimidine derivatives as potent reversal agents against ABCB1-mediated multidrug resistance” (Eur J Med Chem, 2024)
The source made the active and inactive calls. No cut-off for these calls is given here.

Tests used:
[1] = system: NCI/ADR-RES; assay: Induction of cell cycle arrest in human MCF7ADR cells assessed as accumulation of cells at G2/M phase at 10 uM in presence of paclitaxel by propidium iodide staining based flow cytometry analysis; assay type: functional
[2] = target: T1, Tubulin (Homo sapiens) (UniProt P68371+Q9H4B7+P0DPH7+P68366+Q13509+Q71U36+P04350+Q3ZCM7+P07437+P68363+Q9BQE3+Q6PEY2+Q13885+Q9BVA1+Q9BUF5); assay: Induction of paclitaxel mediated tubulin […] in human MCF7ADR cells assessed as appearance of cellular multinucleation at 10 uM incubated for 72 hrs in presence of paclitaxel; assay type: cell-based; conditions: filed as activator
[3] = system: NCI/ADR-RES; assay: Antiproliferative activity against human MCF7ADR cells assessed as survival rate at 5 uM incubated for 72 hrs by MTT assay; assay type: functional; conditions: read-out: Survival
[4] = system: NCI/ADR-RES; assay: Induction of paclitaxel mediated apoptosis in human MCF7ADR cells assessed as viable cells at 10 uM in presence of paclitaxel by Annexin V-FITC and propidium iodide staining based flow cytometry analysis (reference value: 85.75%); assay type: functional; conditions: read-out: Activity
[5] = system: NCI/ADR-RES; assay: Induction of apoptosis in human MCF7ADR cells assessed as viable cells at 10 uM by Annexin V-FITC and propidium iodide staining based flow cytometry analysis (reference value: 85.75%); assay type: functional; conditions: read-out: Activity
[6] = system: MCF7; assay: Reversal of paclitaxel resistance in human MCF7 cells assessed as reversal fold by measuring ratio of paclitaxel IC50 to paclitaxel IC50 in presence of test compound at 10 uM incubated for 72 hrs by MTT assay; assay type: functional
[7] = system: NCI/ADR-RES; assay: Effect on ABCB1 expression in human MCF7ADR cells upto 15 uM by Western blotting analysis; assay type: functional, cell-based
[8] = system: NCI/ADR-RES; assay: Reversal of paclitaxel resistance in human MCF7ADR cells assessed as reduction in paclitaxel IC50 at 10 uM pretreated with compound for 4 hrs followed by paclitaxel addition and measured after 72 hrs by MTT assay (reference value: 6.68 +/- 0.35 microM); assay type: functional, cell-based
[9] = system: NCI/ADR-RES; assay: Induction of apoptosis in human MCF7ADR cells assessed as necrotic cells at 10 uM by Annexin V-FITC and propidium iodide staining based flow cytometry analysis (reference value: 3.14%); assay type: functional
[10] = Cytotoxicity against HUVECs assessed as cell viability at 10 uM; assay type: toxicity, cell-based; conditions: human, HUVEC cells, read-out: Activity
[11] = system: NCI/ADR-RES; assay: Induction of paclitaxel mediated apoptosis in human MCF7ADR cells assessed as late apoptotic cells at 10 uM in presence of paclitaxel by Annexin V-FITC and propidium iodide staining based flow cytometry analysis (reference value: 7.24%); assay type: functional
[12] = system: NCI/ADR-RES; assay: Inhibition of colony formation in human MCF7ADR cells at 10 uM incubated for 7 days in presence of paclitaxel by crystal violet staining based assay; assay type: functional, cell-based; conditions: time 7.0 day
[13] = system: NCI/ADR-RES; assay: Induction of DNA damage in human MCF7ADR cells at 10 uM by comet assay; assay type: functional, cell-based
[14] = system: NCI/ADR-RES; assay: Effect on subcellular localization of ABCB1 in human MCF7ADR cells at 10 uM incubated for 48 hrs by DAPI staining based assay; assay type: functional, cell-based
[15] = system: MCF7; assay: Reversal of paclitaxel resistance in human MCF7 cells; assay type: functional, cell-based
[16] = system: MCF7; assay: Reversal of paclitaxel resistance in human MCF7 cells assessed as reduction in paclitaxel IC50 at 5 uM pretreated with compound for 4 hrs followed by paclitaxel addition and measured after 72 hrs by MTT assay (reference value: 2.60 +/- 0.36 nM); assay type: functional, cell-based
[17] = system: NCI/ADR-RES; assay: Synergistic antiproliferative activity against human MCF7ADR cells assessed as combination index at 10 uM in presence of PTX; assay type: functional
[18] = system: NCI/ADR-RES; assay: Induction of DNA damage in human MCF7ADR cells at 10 nM by comet assay; assay type: functional, cell-based
[19] = system: NCI/ADR-RES; assay: Induction of paclitaxel mediated apoptosis in human MCF7ADR cells assessed as reduction in nuclei size at 10 uM in presence of paclitaxel by DAPI staining based assay; assay type: functional, cell-based
[20] = system: NCI/ADR-RES; assay: Induction of apoptosis in human MCF7ADR cells assessed as late apoptotic cells at 10 uM by Annexin V-FITC and propidium iodide staining based flow cytometry analysis (reference value: 7.24%); assay type: functional
[21] = system: NCI/ADR-RES; assay: Induction of apoptosis in human MCF7ADR cells assessed as early apoptotic cells at 10 uM by Annexin V-FITC and propidium iodide staining based flow cytometry analysis (reference value: 3.87%); assay type: functional
[22] = system: NCI/ADR-RES; assay: Reversal of paclitaxel resistance in human MCF7ADR cells assessed as reversal fold by measuring ratio of paclitaxel IC50 to paclitaxel IC50 in presence of test compound at 10 uM incubated for 72 hrs by MTT assay; assay type: functional
[23] = system: MCF7; assay: Reversal of paclitaxel resistance in human MCF7 cells assessed as reduction in paclitaxel IC50 at 10 uM pretreated with compound for 4 hrs followed by paclitaxel addition and measured after 72 hrs by MTT assay (reference value: 2.60 +/- 0.36 nM); assay type: functional, cell-based
[24] = system: MCF7; assay: Reversal of paclitaxel resistance in human MCF7 cells assessed as reversal fold by measuring ratio of paclitaxel IC50 to paclitaxel IC50 in presence of test compound at 5 uM incubated for 72 hrs by MTT assay; assay type: functional
[25] = system: NCI/ADR-RES; assay: Reversal of paclitaxel resistance in human MCF7ADR cells assessed as reduction in paclitaxel IC50 at 5 uM pretreated with compound for 4 hrs followed by paclitaxel addition and measured after 72 hrs by MTT assay (reference value: 6.68 +/- 0.35 microM); assay type: functional, cell-based
[26] = system: NCI/ADR-RES; assay: Induction of paclitaxel mediated apoptosis in human MCF7ADR cells assessed as nuclear fragmentation at 10 uM in presence of paclitaxel by DAPI staining based assay; assay type: functional, cell-based
[27] = target: T2, ATP-dependent translocase ABCB1 (Homo sapiens, UniProt P08183); assay: Binding affinity to ABCB1 (unknown origin) assessed as reduction in protein hydrolysis at 10 to 100 uM incubated for 1 hr followed by alkaline protease addition and measured after 15 mins by Western blotting analysis; conditions: 1.25 h, dose 10-100 µM, time 75 min
[28] = system: NCI/ADR-RES; assay: Inhibition of cell proliferation in human MCF7ADR cells assessed as reduction in cellular proliferation cells at 10 uM in presence of paclitaxel by EdU staining based assay; assay type: functional
[29] = target: T1, Tubulin (Homo sapiens); assay: Induction of paclitaxel mediated tubulin […] in human MCF7ADR cells assessed as appearance of filamentous microtubules at 10 uM incubated for 72 hrs in presence of paclitaxel; assay type: cell-based; conditions: filed as activator
[30] = target: T1, Tubulin (Homo sapiens); assay: Inhibition of tubulin depolymerization in human MCF7ADR cells assessed as change in microtubule morphology at 10 uM incubated for 72 hrs; assay type: cell-based
[31] = Cytotoxicity against human GES1 cells assessed as cell viability at 10 uM; assay type: toxicity, cell-based; conditions: read-out: Activity
[32] = system: NCI/ADR-RES; assay: Reversal of paclitaxel resistance in human MCF7ADR cells assessed as reversal fold by measuring ratio of paclitaxel IC50 to paclitaxel IC50 in presence of test compound at 5 uM incubated for 72 hrs by MTT assay; assay type: functional
[33] = system: MCF7; assay: Antiproliferative activity against human MCF7 cells assessed as survival rate at 5 uM incubated for 72 hrs by MTT assay; assay type: functional; conditions: read-out: Survival
[34] = Cytotoxicity against HEK293T cells assessed as cell viability at 10 uM; assay type: toxicity, cell-based, HEK-293T; conditions: human, read-out: Activity
[35] = system: NCI/ADR-RES; assay: Antiproliferative activity against human MCF7ADR cells incubated for 72 hrs by MTT assay; assay type: functional, cell-based
[36] = system: NCI/ADR-RES; assay: Induction of paclitaxel mediated DNA damage in human MCF7ADR cells at 10 uM in presence of paclitaxel by comet assay; assay type: functional, cell-based
[37] = system: NCI/ADR-RES; assay: Reversal of paclitaxel resistance in human MCF7ADR cells at 10 uM; assay type: functional, cell-based
[38] = system: NCI/ADR-RES; assay: Induction of paclitaxel mediated apoptosis in human MCF7ADR cells assessed as necrotic cells at 10 uM in presence of paclitaxel by Annexin V-FITC and propidium iodide staining based flow cytometry analysis (reference value: 3.14%); assay type: functional
[39] = system: MCF7; assay: Antiproliferative activity against human MCF7 cells incubated for 72 hrs by MTT assay; assay type: functional, cell-based; conditions: MCF7, 72 h
[40] = system: NCI/ADR-RES; assay: Induction of paclitaxel mediated apoptosis in human MCF7ADR cells assessed as early apoptotic cells at 10 uM in presence of paclitaxel by Annexin V-FITC and propidium iodide staining based flow cytometry analysis (reference value: 3.87%); assay type: functional
[41] = target: T2, ATP-dependent translocase ABCB1; assay: Binding affinity to ABCB1 (unknown origin) assessed as change in thermal stability at 200 uM by CETSA

T2 sequence (P08183 whole entry): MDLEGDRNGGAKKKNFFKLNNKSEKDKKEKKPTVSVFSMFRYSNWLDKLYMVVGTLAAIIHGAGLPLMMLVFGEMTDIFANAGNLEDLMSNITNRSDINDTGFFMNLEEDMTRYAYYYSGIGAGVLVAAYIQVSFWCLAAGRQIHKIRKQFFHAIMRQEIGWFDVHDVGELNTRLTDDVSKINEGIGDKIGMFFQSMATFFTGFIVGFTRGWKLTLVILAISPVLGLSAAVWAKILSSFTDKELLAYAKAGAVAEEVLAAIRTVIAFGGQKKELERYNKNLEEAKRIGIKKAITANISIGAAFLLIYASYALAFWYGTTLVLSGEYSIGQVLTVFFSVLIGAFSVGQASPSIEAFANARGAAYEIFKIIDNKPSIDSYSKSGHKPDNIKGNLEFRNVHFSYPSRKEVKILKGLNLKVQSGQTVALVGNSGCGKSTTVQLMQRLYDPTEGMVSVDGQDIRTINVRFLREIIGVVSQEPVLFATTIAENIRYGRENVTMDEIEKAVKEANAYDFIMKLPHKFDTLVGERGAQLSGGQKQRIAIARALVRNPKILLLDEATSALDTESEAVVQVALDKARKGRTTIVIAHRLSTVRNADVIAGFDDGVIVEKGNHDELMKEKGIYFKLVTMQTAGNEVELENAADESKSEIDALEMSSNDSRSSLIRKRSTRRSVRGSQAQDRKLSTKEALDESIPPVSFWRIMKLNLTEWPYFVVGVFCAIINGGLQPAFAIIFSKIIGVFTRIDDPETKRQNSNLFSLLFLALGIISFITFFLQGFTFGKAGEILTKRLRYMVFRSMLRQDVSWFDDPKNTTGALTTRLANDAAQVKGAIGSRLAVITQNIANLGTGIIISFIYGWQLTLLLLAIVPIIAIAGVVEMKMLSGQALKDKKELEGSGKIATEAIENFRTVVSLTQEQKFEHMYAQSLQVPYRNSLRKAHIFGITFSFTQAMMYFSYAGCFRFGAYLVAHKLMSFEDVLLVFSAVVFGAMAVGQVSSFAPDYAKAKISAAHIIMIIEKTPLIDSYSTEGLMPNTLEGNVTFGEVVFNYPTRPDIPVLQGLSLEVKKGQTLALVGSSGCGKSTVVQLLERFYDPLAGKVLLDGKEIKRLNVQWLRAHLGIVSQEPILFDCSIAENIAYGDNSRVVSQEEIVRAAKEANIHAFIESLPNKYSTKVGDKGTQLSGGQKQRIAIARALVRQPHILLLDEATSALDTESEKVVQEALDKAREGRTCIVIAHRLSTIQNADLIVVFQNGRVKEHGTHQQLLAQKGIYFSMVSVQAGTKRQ

COc1cc(-c2c(C)nc3cc(-c4cccs4)nn3c2-c2cc(OC)c(OC)c(OC)c2)cc(OC)c1OC
Activity [1]: Active | Activity [2]: Active | viability at 5 µM [3]: 95% | viability at 10 µM [4]: 52.3% | viability at 10 µM [5]: 84.4% | Ratio [6]: 0.98 | Activity [7]: inactive | IC50 [8]: 10.1 nM | Activity [9]: 1.44% | viability at 10 µM [10]: > 80% | Activity [11]: 29.54% | inhibition [12]: Active | Activity [13]: Active | Activity [14]: inactive | Activity [15]: inactive | IC50 [16]: 2.96 nM | CI [17]: 0.09 | Activity [18]: Active | Activity [19]: Active | Activity [20]: 7.98% | Activity [21]: 6.17% | Ratio [22]: 663.44 | IC50 [23]: 2.65 nM | Ratio [24]: 0.88 | IC50 [25]: 27 nM | Activity [26]: Active | Activity [27]: Active | inhibition [28]: Active | Activity [29]: Active | inhibition [30]: inactive | viability at 10 µM [31]: > 80% | Ratio [32]: 247.4 | viability at 5 µM [33]: 97.7% | viability at 10 µM [34]: > 80% | IC50 [35]: > 20000 nM | Activity [36]: Active | Activity [37]: Active | Activity [38]: 4.28% | IC50 [39]: > 20000 nM | Activity [40]: 13.87% | Activity [41]: Active
